Values joined by “and” are separate entries in the source; they are usually repeats but may differ in a detail not shown here. Equal values may be shown once.
Tested on: A/Washington/29/2009 (H1N1) H275Y
Format: cell-based, influenza A virus

SMILES	DIF (Difference from Control) [log10TCID50/mL]	Virus titer AVG	Virus titer, replicates 1-3
CCOC(=O)C1=C[C@@H](OC(CC)CC)[C@H](NC(C)=O)[C@@H](N)C1 [Oseltamivir, oseltamivir, reference compound]	-0.92	3.92 log10TCID50/mL	3.75 log10TCID50/mL (2×) and 4.25 log10TCID50/mL
CC1=C(COCCC(C)(C)C)C(=O)N(Nc2ccc(C(F)(F)F)c(Cl)n2)C1=O [felezonexor, 3-[(3,3-dimethylbutoxy)methyl]-1-{[6-chloro-5-(trifluoromethyl) (2-pyridyl)]amino}-4-methylazoline-2,5-dione]	–	2.67 log10TCID50/mL and 3.83 log10TCID50/mL and 4.50 log10TCID50/mL	2.75 log10TCID50/mL (2×) and 3.50 log10TCID50/mL and 4.50 log10TCID50/mL (3×) and 2.50 log10TCID50/mL and 3.75 log10TCID50/mL and 4.25 log10TCID50/mL

— patent publication US20230158005A1 (priority 2020, published 2023)
